Results: patent US11266715B2, “C3A receptor agonists for use against ischemic brain injury, stroke, traumatic brain injury, spinal cord injury and neurodegenerative disorders” (priority 2016, dated 2022)

How the values were obtained:
VGLUT1+ puncta = test: VGLUT1 immunostaining of cortex 21 days after stroke; assay type: in vivo, mouse; conditions: ipsilesional cortex, in particular deep cortical layers
Experimental: For immunofluorescent evaluation, sections were deparaffinized, heated three times for 5 min in a microwave oven in 0.01 M citric buffer (pH 6.0), and blocked in PBS containing 0.05% Tween-20 (Sigma) and 1% in Bovine serum albumin (BSA, Sigma) for GAP-43 and synapsin I staining, 3% normal goat serum for VGLUT1 staining or 4% normal donkey serum for GAP-43 double stainings. Goat anti-synapsin la/b antibody (1:150; Santa Cruz, sc-7379) was followed by biotin-conjugated donkey anti-goat immunoglobulin (Ig) secondary antibody (1:200; Jackson Research Lab, 705-065-147) and Cy3-conjugated streptavidin (1:100; Sigma). Guinea pig anti-VGLUT1 (1:500; Millipore, AB5905) was followed by Alexa Fluor 488 goat anti-guinea pig Ig (1:500; Molecular Probes, A11073). […]
Highest signal intensity single plane images of immunostained sections were obtained by laser scanning confocal microscope (LSM TCS SP2, Leica Microsystems, ×63/NA 1.3 objective for synapsin I and GAP-43; and LSM 700, Carl Zeiss for VGLUT1 ×40/NA 1.3) at 1024×1024 pixels resolution. […] Three standard sections per animal in 160 μm intervals were analysed. […]
Single-stained images were analysed using MetaMorph® software (Molecular Devices, ver. 2.8.5) to obtain number, average size and intensity of positive punctuate structures per image. […] An experimenter blinded to experimental group performed all image acquisitions and quantifications.

serum carboxypeptidases = conditions: systemically administered C3a; cited from earlier work

Substance: C3a: Purified human C3a peptide (Complement Technologies), C3a receptor agonist, amino acid sequence SEQ ID NO: 1
- density and size of VGLUT1+ puncta (VGLUT1+ puncta): higher density and size
- stability in serum (serum carboxypeptidases): rapid inactivation by serum carboxypeptidases
